The source of these data is patent US20250268926A1, “METHOD AND COMPOSITION FOR TREATING, ALLEVIATING OR PREVENTING A DISEASE OR CONDITION CAUSED BY AIR POLLUTANT” (Hong Kong Baptist University, priority 2024, published 2025).

Common to all, as to type: cell-based, human
Test [1] concerns BEAS-2B cells. Kind of test: Seahorse Cell Mito stress test (OCR). The settings on record: for ATP production / basal respiration / maximal respiration: after exposure to PM2.5 from both Taiyuan and Guangzhou (200 μg/mL), metabolite 200 μM. As to the method: (§1) To detect the cell viability, different concentrations (25 μM, 50 μM, 100 μM, and 200 μM) of selected metabolic markers were added to BEAS-2B cell cultures for 24 h, followed by 200 μg/mL PM2.5 samples for another 24 h. After exposure, 10 μL CCK-8 with 100 μL mediums were added to the cells and incubated for 1.5 h, the absorption was detected at 450 nm to assess cell viability. Agilent Seahorse assays were used to evaluate the effects of metabolic markers on mitochondrial functions. The OCR of cells was determined after being treated by both metabolic markers (200 μM) and PM2.5 samples (200 μg/mL) (n=3).
(§2) Cell Mito stress test: BEAS-2B cells were seeded in the XF 96-well Seahorse assay miniplates with a density of 20,000 cells/well in BEGM™ bronchial epithelial cell growth medium and incubated for 24 h at 37° C. After exposure, the cells were washed with XF assay medium including 10 mM glucose, 1 mM sodium pyruvate, and 2 mM L-glutamine (adjusted pH to 7.4 with 0.1 M NaOH) and incubated for 1 h in a 37° C. non-CO2 incubator. Before assay, the sensor cartridge was hydrated in Agilent Seahorse XF Calibrant at 37° C. in a non-CO2 incubator overnight, and oligomycin (port A final 1 μM), carbonyl cyanide-4-(trifluoromethoxy) phenylhydrazone (FCCP) (port B final 1 μM chosen from the optimization assay) and rotenone antimycin A (port C final 0.5 μM) were added to the corresponding ports of the hydrated sensor cartridge. Then the cartridge was transferred to the Seahorse analyzer (Agilent Technologies) to calibrate the period for approximately 20 min. When the calibration has been completed, the utility plate was removed and the cell miniplate was placed to start the assay. The assay was divided into four parts. After the equilibration period was three basal assays, and then oligomycin was added to inhibit the complex V (ATP synthase) for three cycles, FCCP was followed to stimulate maximal respiration in mitochondria by uncoupling ATP synthesis from electron transport. Lastly, rotenone plus antimycin A was added to determine the non-mitochondrial respiratory rate. Oxygen consumption rate (OCR) was used to assess the mitochondrial respiratory change.

Test [2] deals with BEAS-2B cells. Kind of test: Seahorse substrate oxidation stress test (glucose / fatty acid oxidation). The settings on record: for maximal respiration of cells with oxidation inhibitor: cells with or without PM2.5. On the procedure: as §2
The substrate oxidation stress test was used to assess the specific mitochondrial substrates that were relevant or required for cellular phenotype and function. Two different inhibitors (UK50099 for the glucose pathway and etomoxir for the long-chain fatty acids pathway) were added before the Mito stress test and the following process was the same with the Mito stress test.

The next test deals with OGT. Kind of test: qPCR gene expression, OGT. The settings on record: after PM2.5 exposure. On the procedure: (§3) Total RNA was extracted from BEAS-2B cells with RNAiso plus kit (TaKaRa, Shiga, Japan) according to the manufacturer's instructions. Reverse transcription of cDNA synthesis and real-time quantitative polymerase chain reaction (qPCR) were performed as described previously. All primers synthesized at BGI Co., Ltd. (Hong Kong, China) were described in Table 2.

For another test, the system named is GFAT. In words: qPCR gene expression, GFAT. The settings on record: after exposure to PM2.5. On the procedure: as §3
The test system of test [3] is BEAS-2B cells. In words: Cell viability (CCK-8) of BEAS-2B cells given metabolic markers, then PM2.5. The settings on record: metabolite 25-200 μM for 24 h, then 200 μg/mL PM2.5 for 24 h. On the procedure:
as §1

The next test concerns Phospho1. In words: qPCR gene expression, Phospho1. On the procedure: as §3
A general note: Quantitative PCR measures a nucleic acid by following its amplification.

In the next test the test system is PGC-1α. In words: qPCR gene expression, PGC-1α. The settings on record: repressed by PM2.5 exposure. As to the method:
as §3

On to `CC(=O)N[C@@H](CC(=O)O)C(=O)O` [NAA, N-acetyl-aspartic acid], for which, in the test on BEAS-2B cells [1], the ATP production entry was “significantly increase”, the basal respiration entry was “significantly increase” and the maximal respiration entry is recorded as “significantly increase”.

As for `CCOC(=O)[C@@]1(CCCCCCOc2ccc(Cl)cc2)CO1` [etomoxir, reference compound], in the test on BEAS-2B cells [2], the “maximal respiration of cells with oxidation inhibitor” value was “did not change”.

As to “uridine diphosphate N-acetylglucosamine [UDP-GlcNAc]”, in the test with BEAS-2B cells [1], the ATP production entry is given as “significantly increase”, the basal respiration result is given as “significantly increase” and the maximal respiration result is given as “significantly increase”. For the same compound, in the test with BEAS-2B cells [2] (cultures with and without PM2.5), the “increase of cells' glucose oxidation” value came out at 1.6 fold. The OGT expression result in the test with OGT is on record as “partially rescued”. For the same compound, the GFAT expression result with GFAT is listed as “interacted with the decline of GFAT”.

As for `CN(CC(=O)O)C(=N)N` [creatine], the “cell viability reduced by PM2.5 exposure” value with BEAS-2B cells [3] is on record as “improve the cell viability”.

`C[N+](C)(C)CCOP(=O)([O-])O` [Pc, phosphocholine]: in the test with Phospho1 (after PM2.5 exposure), the Phospho1 expression entry is recorded as “greatly downregulated”. Besides, the Phospho1 expression entry with Phospho1 (normal cells) is “no effects”. The “cell viability reduced by PM2.5 exposure” value with BEAS-2B cells [3] is “improve the cell viability”. Further, in the test with BEAS-2B cells [1], the ATP production entry is on record as “significantly increase”, the basal respiration entry is “significantly increase” and the maximal respiration entry was “significantly increase”. Besides, the “effect against adverse impacts of the TY1 panel on mitochondrial functions” value in the test on BEAS-2B cells [1] (cells exposed to TY1) is given as “protective effects”. The PGC-1α expression entry in the test on PGC-1α is listed as “rescued”. Besides, the “maximal respiration, fatty acid oxidation test” value in the test on BEAS-2B cells [2] (only in the PM2.5-exposed lung cells) is listed as “significantly increased”.

`NCCS(=O)(=O)O` [taurine]: in the test on BEAS-2B cells [3], the “cell viability reduced by PM2.5 exposure” value is listed as “improve the cell viability”.

As for `N#C/C(=C\c1cn(-c2ccccc2)c2ccccc12)C(=O)O` [UK5099, reference compound], the “maximal respiration of cells with oxidation inhibitor” value in the test with BEAS-2B cells [2] was “remarkably reduced”.
